Experimental data as given in the supplement of paper PMC11061612.

Tests used:
Assay in all cases: Bliss excess, mean over the matrix (fraction); higher = more synergy
8-MG-BA (Glioblastoma) = test system: 8-MG-BA (Glioblastoma)
Procedure, shortened: (§1)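 Bliss excess equals the observed combination effect minus the expected value EA + EB − EA·EB, where EA and EB are the effects of each agent alone. Combination Emax is the second-highest inhibition within the matrix. Inhibition was scaled from CellTiter-Glo 2.0 luminescence, with 0 set by vehicle wells and 1 by blank wells, after 72 hours of two-drug dosing of cells plated in 1536-well plates.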

A498 (Kidney Carcinoma) = test system: A498 (Kidney Carcinoma)
Procedure, shortened: as §1

ARH-77 (Non-Cancerous) = test system: ARH-77 (Non-Cancerous)
Procedure, shortened: as §1

[1] = test system: BICR22 (Oral Cavity Carcinoma)
Procedure, shortened: as §1

CAS-1 (Glioblastoma) = test system: CAS-1 (Glioblastoma)
Procedure, shortened: as §1

[2] = test system: CCK-81 (Colorectal Carcinoma)
Procedure, shortened: as §1

[3] = test system: COLO-824 (Breast Carcinoma)
Procedure, shortened: as §1

GI-ME-N (Neuroblastoma) = test system: GI-ME-N (Neuroblastoma)
Procedure, shortened: as §1

[4] = test system: HCC1954 (Breast Carcinoma)
Procedure, shortened: as §1

[5] = test system: KARPAS-422 (B-Cell Non-Hodgkin's Lymphoma)
Procedure, shortened: as §1

LN-405 (Glioblastoma) = test system: LN-405 (Glioblastoma)
Procedure, shortened: as §1

[6] = test system: NCI-H1666 (Lung Adenocarcinoma)
Procedure, shortened: as §1

NCI-H2591 (Mesothelioma) = test system: NCI-H2591 (Mesothelioma)
Procedure, shortened: as §1

NY (Osteosarcoma) = test system: NY (Osteosarcoma)
Procedure, shortened: as §1

[7] = test system: SISO (Cervical Carcinoma)
Procedure, shortened: as §1

[8] = test system: SK-MES-1 (Squamous Cell Lung Carcinoma)
Procedure, shortened: as §1

[9] = test system: TT (Thyroid Gland Carcinoma)
Procedure, shortened: as §1

[10] = test system: TT2609-C02 (Thyroid Gland Carcinoma)
Procedure, shortened: as §1

U-2-OS (Osteosarcoma) = test system: U-2-OS (Osteosarcoma)
Procedure, shortened: as §1

[11] = test system: VCaP (Prostate Carcinoma)
Procedure, shortened: as §1

Structure (SMILES) | Bliss excess (8-MG-BA (Glioblastoma)) | Bliss excess (A498 (Kidney Carcinoma)) | Bliss excess (ARH-77 (Non-Cancerous)) | Bliss excess [1] | Bliss excess (CAS-1 (Glioblastoma)) | Bliss excess [2] | Bliss excess [3] | Bliss excess (GI-ME-N (Neuroblastoma)) | Bliss excess [4] | Bliss excess [5] | Bliss excess (LN-405 (Glioblastoma)) | Bliss excess [6] | Bliss excess (NCI-H2591 (Mesothelioma)) | Bliss excess (NY (Osteosarcoma)) | Bliss excess [7] | Bliss excess [8] | Bliss excess [9] | Bliss excess [10] | Bliss excess (U-2-OS (Osteosarcoma)) | Bliss excess [11]
COc1cccc(OCCCN)c1-c1cc(Nc2cnc(C#N)cn2)n[nH]1 [Prexasertib] + Cc1cc2ncnn2cc1Nc1ncc2c(n1)n(C1CCOCC1)c(=O)n2C [AZD7648] (first compound max 1 µM, 7x7, partner max 10 µM) | -0.058 | -0.0206 | -0.0015 | 0.0594 | -0.0053 | -0.0134 | -0.01 | 0.107 | -0.0179 | -0.0787 | -0.017 | -0.0176 | -0.0079 | -0.0328 | 0.0136 | -0.0411 | -0.0144 | -0.0157 | -0.0223 | -0.0509
CCc1c2c(nc3ccc(O)cc13)-c1cc3c(c(=O)n1C2)COC(=O)[C@]3(O)CC [SN-38] + CN(C)CCCOc1ccc(-c2ccc3ncc4c(c3c2)n(C2CCOCC2)c(=O)n4C)cn1 [AZD0156] (first compound max 0.3 µM, 7x7, partner max 1 µM) | 0.0392 | -0.0444 | 0.0037 | 0.0243 | -0.0101 | 0.135 | 0.0473 | -0.0089 | 0.035 | -0.0862 | -0.0028 | 0.0313 | -0.0118 | -0.0288 | 0.0978 | -0.0272 | -0.119 | 0.0068 | -0.0193 | -0.018
Cc1c2c(nn1C)CSCc1cc(n(C)n1)CSc1cc(c3ccccc3c1)OCCCc1c(C(=O)O)n(C)c3c-2c(Cl)ccc13 [AZD5991] + CC1(C)CCC(CN2CCN(c3ccc(C(=O)NS(=O)(=O)c4ccc(NCC5CCOCC5)c([N+](=O)[O-])c4)c(Oc4cnc5[nH]ccc5c4)c3)CC2)=C(c2ccc(Cl)cc2)C1 [Venetoclax] (first compound max 1 µM, 7x7, partner max 1 µM) | 0.048 | -0.108 | 0.0087 | 0.0003 | -0.0284 | 0.0362 | 0.11 | -0.0408 | 0.0401 | 0.205 | 0.0082 | -0.0478 | -0.0252 | 0.0232 | -0.0181 | -0.0302 | 0.0887 | -0.0069 | -0.0011 | -0.0351
COc1cccc2c1C(=O)c1c(O)c3c(c(O)c1C2=O)C[C@@](O)(C(=O)CO)C[C@@H]3O[C@H]1C[C@H](N)[C@H](O)[C@H](C)O1 [Doxorubicin] + Cc1cc2ncnn2cc1Nc1ncc2c(n1)n(C1CCOCC1)c(=O)n2C [AZD7648] (first compound max 1 µM, 7x7, partner max 10 µM) | 0.0675 | 0.0163 | 0.0783 | 0.0744 | 0.105 | 0.0481 | 0.0742 | 0.0207 | 0.0849 | 0.0699 | -0.0125 | 0.0129 | 0.0556 | 0.0578 | 0.0937 | 0.0477 | 0.01 | 0.0486 | 0.0234 | 0.0275
Cc1cc2ncnn2cc1Nc1ncc2c(n1)n(C1CCOCC1)c(=O)n2C [AZD7648] + CCN(CCO)CCCOc1ccc2c(Nc3cc(CC(=O)Nc4cccc(F)c4)[nH]n3)ncnc2c1 [AZD2811] (first compound max 10 µM, 7x7, partner max 1 µM) | 0.0664 | -0.0049 | 0.0348 | 0.0239 | 0.0895 | 0.0699 | 0.0116 | 0.0032 | 0.0561 | -0.0417 | -0.0206 | -0.0087 | 0.0506 | 0.0076 | 0.0662 | -0.0011 | -0.0266 | 0.0149 | 0.0294 | 0.0023
CC(=O)c1c(C)c2cnc(Nc3ccc(N4CCNCC4)cn3)nc2n(C2CCCC2)c1=O [Palbociclib] + CC1(C)CCC(CN2CCN(c3ccc(C(=O)NS(=O)(=O)c4ccc(NCC5CCOCC5)c([N+](=O)[O-])c4)c(Oc4cnc5[nH]ccc5c4)c3)CC2)=C(c2ccc(Cl)cc2)C1 [Venetoclax] (first compound max 10 µM, 7x7, partner max 1 µM) | 0.0049 | -0.021 | 0.0762 | -0.0319 | -0.009 | -0.0761 | 0.0365 | -0.0514 | -0.0424 | 0.0434 | -0.0391 | -0.069 | 0.0045 | -0.0479 | -0.0384 | -0.0114 | 0.0138 | 0.0069 | -0.0275 | -0.0076
CC1(C)CCC(CN2CCN(c3ccc(C(=O)NS(=O)(=O)c4ccc(NCC5CCOCC5)c([N+](=O)[O-])c4)c(Oc4cnc5[nH]ccc5c4)c3)CC2)=C(c2ccc(Cl)cc2)C1 [Venetoclax] + COc1cc(Nc2ncc3c(n2)-c2ccc(Cl)cc2C(c2c(F)cccc2OC)=NC3)ccc1C(=O)O [Alisertib] (first compound max 1 µM, 7x7, partner max 10 µM) | 0.0038 | -0.0352 | 0.278 | 0.0052 | -0.0341 | 0.0196 | 0.206 | -0.094 | 0.0356 | 0.137 | -0.0196 | -0.0713 | -0.066 | -0.0009 | 0.0121 | -0.0201 | -0.113 | -0.0069 | 0.0055 | 0.0574
CN(C)CCCOc1ccc(-c2ccc3ncc4c(c3c2)n(C2CCOCC2)c(=O)n4C)cn1 [AZD0156] + C[C@@H]1COCCN1C2=NC(=NC(=C2)C3(CC3)[S@](=N)(=O)C)C4=C5C=CNC5=NC=C4 [AZD6738] (first compound max 1 µM, 7x7, partner max 10 µM) | 0.0389 | -0.0347 | 0.0673 | -0.0626 | -0.0046 | -0.0161 | 0.0425 | -0.015 | 0.0016 | -0.0444 | -0.0236 | -0.0274 | -0.0461 | -0.0372 | 0.0119 | -0.0406 | -0.0583 | -0.0067 | 0.0445 | -0.037
CN(CCO)CC[C@H](CSc1ccccc1)Nc1ccc(S(=O)(=O)NC(=O)c2ccc(N3CCC([C@@H](O)c4ccccc4-c4ccc(Cl)cc4)CC3)cc2)cc1S(=O)(=O)C(F)(F)F [AZD4320] + CCN(CCO)CCCOc1ccc2c(Nc3cc(CC(=O)Nc4cccc(F)c4)[nH]n3)ncnc2c1 [AZD2811] (first compound max 1 µM, 7x7, partner max 1 µM) | 0.003 | -0.0371 | 0.0992 | 0.0119 | 0.0208 | -0.0345 | 0.0272 | -0.057 | 0.149 | 0.14 | 0.014 | -0.0283 | 0.0015 | -0.0182 | 0.0049 | -0.0328 | 0.0345 | 0.0411 | 0.0076 | 0.0003
CC1(C)CCC(CN2CCN(c3ccc(C(=O)NS(=O)(=O)c4ccc(NCC5CCOCC5)c([N+](=O)[O-])c4)c(Oc4cnc5[nH]ccc5c4)c3)CC2)=C(c2ccc(Cl)cc2)C1 [Venetoclax] + Cn1cnc2c(F)c(Nc3ccc(Br)cc3Cl)c(C(=O)NOCCO)cc21 [Selumetinib] (first compound max 1 µM, 7x7, partner max 3 µM) | -0.0216 | 0.024 | 0.0304 | -0.0691 | -0.035 | 0.0338 | 0.0356 | -0.0744 | 0.0025 | -0.0238 | -0.0598 | 0.025 | -0.0169 | -0.0331 | -0.0162 | -0.0572 | -0.0799 | -0.0518 | -0.0309 | -0.0082
CC1(C)CCC(CN2CCN(c3ccc(C(=O)NS(=O)(=O)c4ccc(NCC5CCOCC5)c([N+](=O)[O-])c4)c(Oc4cnc5[nH]ccc5c4)c3)CC2)=C(c2ccc(Cl)cc2)C1 [Venetoclax] + C1CN(CCC1(C(=O)N[C@@H](CCO)C2=CC=C(C=C2)Cl)N)C3=NC=NC4=C3C=CN4 [Capivasertib] (first compound max 1 µM, 7x7, partner max 3 µM) | 0.0442 | -0.121 | 0.054 | -0.0249 | -0.0653 | -0.039 | 0.0048 | -0.0685 | 0.0021 | 0.0459 | -0.0712 | -0.0541 | -0.0453 | 0.0029 | -0.0557 | -0.044 | -0.103 | -0.0391 | -0.0414 | -0.026
CC1(C)CCC(CN2CCN(c3ccc(C(=O)NS(=O)(=O)c4ccc(NCC5CCOCC5)c([N+](=O)[O-])c4)c(Oc4cnc5[nH]ccc5c4)c3)CC2)=C(c2ccc(Cl)cc2)C1 [Venetoclax] + Cc1cc2ncnn2cc1Nc1ncc2c(n1)n(C1CCOCC1)c(=O)n2C [AZD7648] (first compound max 1 µM, 7x7, partner max 10 µM) | -0.0139 | -0.0755 | 0.0245 | -0.0376 | -0.05 | -0.0114 | 0.0222 | -0.0235 | -0.0034 | 0.0157 | 0.015 | -0.0821 | -0.0384 | 0.0011 | -0.01 | -0.0002 | -0.0161 | -0.0014 | -0.0178 | -0.0248
NC1(C(=O)N[C@@H](CCO)c2ccc(Cl)cc2)CCN(c2ncnc3[nH]ccc23)CC1 [Capivasertib] + CC(C)n1c(=O)n(C)c2cnc3cc(F)c(-c4ccc(OCCCN5CCCCC5)nc4)cc3c21 [AZD1390] (first compound max 10 µM, 7x7, partner max 0.3 µM) | -0.0557 | -0.0632 | -0.0509 | -0.018 | -0.0671 | -0.0514 | -0.0137 | -0.0993 | -0.056 | -0.0685 | -0.0912 | -0.0285 | -0.0804 | -0.0643 | -0.0782 | -0.0874 | -0.0945 | -0.0609 | -0.0453 | -0.0389
CN(CCO)CC[C@H](CSc1ccccc1)Nc1ccc(S(=O)(=O)NC(=O)c2ccc(N3CCC([C@@H](O)c4ccccc4-c4ccc(Cl)cc4)CC3)cc2)cc1S(=O)(=O)C(F)(F)F [AZD4320] + C[C@@H]1COCCN1C2=NC(=NC(=C2)C3(CC3)[S@](=N)(=O)C)C4=C5C=CNC5=NC=C4 [AZD6738] (first compound max 1 µM, 7x7, partner max 10 µM) | 0.0107 | -0.157 | -0.0049 | -0.0433 | -0.0307 | -0.0546 | -0.0365 | -0.0403 | 0.0289 | 0.0896 | 0.0063 | -0.0645 | -0.0462 | 0.0125 | -0.0078 | 0.0228 | -0.033 | -0.0542 | -0.0394 | -0.0287
